The subject of assay [1] is HIV-1NL4-3 reporter virus, reverse transcriptase mutations K103N-Y181C. In words: Light assay with inhibitor-resistant HI reporter virus in MT4 7F2 cells. The format is cell-based. Particulars: Human immunodeficiency virus 1, 120 h, read-out: EC50 (nM) MT4 7F2 cells HIV-1NL4-M3 K103N-Y181C 2% FCS. As to the method: (§1) For the mixture for a 96-well MTP, 3 million MT4 7F2 cells are pelleted, suspended in 1 ml of RPMI 1640 medium without phenol red (Invitrogen, Karlsruhe, Germany)/10% FCS/10% AIM-V (Invitrogen, Karlsruhe, Germany) and incubated together with a suitable amount of the corresponding HIV-1NL4-3 reporter virus at 37° C. for 2 hours (pellet infection). Unadsorbed viruses are subsequently washed out with PBS, and the infected cells are pelleted again and suspended in 8 ml of RPMI 1640 medium without phenol red/2% or 10% FCS/10% AIM-V. 80 μl thereof are pipetted into each well of a white 96-well MTP with 20 μl of test substance in suitable dilution. To avoid edge effects, the wells on the edge of the MTP are not used for substance dilutions. The second vertical row of the MTP contains only infected cells (virus control) and the eleventh vertical row only uninfected cells (cell control), in each case in RPMI 1640 medium without phenol red/2% or 10% FCS/10% AIM-V. The other wells of the MTP contain the compounds of the invention in various concentrations starting from the third vertical row, from which the test substances are diluted in 3-fold steps up to the tenth vertical row 3^7-fold. The test substances are dissolved in DMSO, whereby the final DMSO concentration in the test mixture is 1%. The test mixtures are incubated at 37° C./5% CO2 for five days and, after the addition of 15 μl of Lu164 substrate (5 mg/ml coelenterazine dissolved in 30 μM glutathione/DMSO, 100 mM NaCl, 1M MES, 100 mM glutathione), evaluated by luminometry. The resulting values are in the region of 1 000 000 RLUs (relative light units) for the virus control and 300 to 400 RLUs for the cell control. The EC50 values of the test substances are determined as the concentration at which the virus replication measured in RLUs is 50% of the untreated infected cells.

Assay [2] has as its system HIV-1NL4-3 reporter virus, wild-type. In words: Light assay with wild-type HI reporter virus in MT4 7F2 cells. The format is cell-based. The note with it: Human immunodeficiency virus 1, 120 h, read-out: EC50 (nM) MT4 7F2 cells HIV-1NL4-M3 wt 2% FCS. As to the method:
as §1

The next assay has as its target T1, reverse transcriptase (Human immunodeficiency virus type 1 group M subtype B, UniProt P04585).
T1 construct: negative control (mixture without reverse transcriptase); purchased Roche Diagnostics GmbH, Mannheim, Germany
Put plainly: Biochemical reverse transcriptase assay (Reverse Transcriptase Assay, colorimetric, Roche). How it is done:
The “Reverse Transcriptase Assay, colorimetric” (Roche Diagnostics GmbH, Mannheim, Germany) is used in accordance with the manufacturer's information. The test substances are dissolved in DMSO and are used in the test diluted in 5-fold steps (final DMSO concentration 1%). The resulting values of the photometric evaluation (405/492 nm) are less than 0.1 for the negative control (mixture without reverse transcriptase) and are in the region of 1.5 for the positive control (mixture without test substance). The IC50 values of the test substances are determined as the concentration of the test substance dilution at which the measured optical density is 50% of the positive control.

The subject of a further assay is HIV-1LAI. Put plainly: H9 assay with wild-type HIV-1 (HIV-1LAI supernatant infection, AlamarBlue). The format is cell-based. The note with it: Human immunodeficiency virus 1, 120 h, H9 cells, 10% FCS, 5 days. As to the method: For the mixture for a 96-well MTP, 3 million PBLs are pelleted, suspended in 1 ml of RPMI 1640 medium/10% FCS and incubated together with a suitable amount of HIV-1LAI (NIH AIDS Research & Reference Reagent Program, Germantown, USA) at 37° C. for 2 hours (pellet infection). Unadsorbed viruses are subsequently washed out with PBS, and the infected cells are pelleted again and suspended in 18 ml of RPMI 1640 medium/10% FCS/interleukin-2 (40 U/ml). 180 μl thereof are pipetted into each well of a white 96-well MTP with 20 μl of test substance in suitable dilution. Alternatively, after preparation of the substance dilutions in the MTP, the HIV is pipetted in together with the cells and is not washed out again (supernatant infection). In order to avoid edge effects, the wells at the edge of the MTP are not used for substance dilutions. The second vertical row of the MTP contains only infected cells (virus control) and the eleventh vertical row only uninfected cells (cell control), in each case in RPMI 1640 medium/10% FCS/interleukin-2 (40 U/ml). The other wells of the MTP contain the compounds of the invention in various concentrations starting from the third vertical row, from which the test substances are diluted in 3-fold steps up to the tenth vertical row 3^7-fold. The test substances are dissolved in DMSO, whereby the final DMSO concentration in the test mixture is 1%. The test mixtures are incubated at 37° C./5% CO2. After 5 and 7 days, 50 μl of cell-free supernatant are removed from each well to determine the amount of p24 present by means of a p24 ELISA (HIV-1 p24^CA Antigen Capture Assay Kit, NCI-Frederick Cancer Research and Development Center, Frederick, USA). From the resulting values of the photometric evaluation (450/620 nm) the EC50 values of the test substances are determined as the concentration at which the amount of p24 is 50% of the untreated infected cells.
Alternatively, H9 cells (ATCC, Wesel, Germany) are employed instead of PBLs for testing the test substances. H9 cells are incubated in RPMI 1640 medium with 2% or 10% FCS as a HIV-1LAI supernatant infection at 37° C./5% CO2, (20 μl of substance dilution and 80 μl of cells/virus per well) in accordance with the pattern described above for 5 days. Subsequently, 10 μl of AlamarBlue (Invitrogen, Karlsruhe, Germany) are added to each well, and the MTPs are incubated at 37° C. for 3 hours before the fluorimetric evaluation takes place (544/590 nm). The resulting values are about 40 000 for the untreated uninfected cells and about 7000 for the untreated infected cells. In the low concentration range, the EC50 values of the test substances are determined as the concentration at which the fluorescence is 50% of the untreated uninfected cells (in each case subtracting the values of the untreated infected cells). In addition, in the high concentration range, the CC50 values of the test substances are determined as the concentration at which the fluorescence is 50% of the untreated uninfected cells (in each case subtracting the values of the untreated infected cells).
In general terms: The colour change of resazurin is a common sign of viable cells or microbes.

Setting [3] is: colorimetric RT assay, final DMSO 1%, read-out: IC50 (nM) RT assay.

One may read the EC50 as the concentration that produces a half-maximal response. For orientation: IC50 means the concentration that inhibits the measured activity by half.

Where two headings read alike, the source gives them in different places.

For the molecule `O=C1CN(C(=O)c2nc(-c3ccc(F)c(Cl)c3)c(-c3cc(F)cc(Cl)c3)s2)CN1` [Example 1, 1-{[4-(3-Chloro-4-fluorophenyl)-5-(3-chloro-5-fluorophenyl)-1,3-thiazole-2-yl]carbonyl}imidazolidin-4-one], the concentration for a half-maximal effect (EC50) in assay [1] came to 55 nM; in assay [2] it was 2 nM; with HIV-1LAI, 14 nM. For the same molecule, the IC50 at reverse transcriptase (setting [3]) was found to be 61 nM.

On to `O=C1CN(C(=O)c2nc(-c3ccc(F)c(Cl)c3)c(-c3cccc(Cl)c3)s2)CN1` [Example 2, 1-{[4-(3-Chloro-4-fluorophenyl)-5-(3-chlorophenyl)-1,3-thiazole-2-yl]carbonyl}imidazolidin-4-one], for which the EC50 in assay [1] was determined as 91 nM; in assay [2] it was 4 nM; in the assay with HIV-1LAI, 30 nM. The 50% inhibitory concentration (IC50) at reverse transcriptase (setting [3]) was 17 nM.

On to `O=C1CN(C(=O)c2nc(-c3cccc(Cl)c3)c(-c3cc(F)cc(Cl)c3)s2)CN1` [Example 3, 1-{[5-(3-Chloro-5-fluorophenyl)-4-(3-chlorophenyl)-1,3-thiazole-2-yl]carbonyl}imidazolidin-4-one], for which the EC50 is 60 nM in assay [1], 0.6 nM in assay [2] and 12 nM with HIV-1LAI. On reverse transcriptase (setting [3]), the concentration for half-maximal inhibition (IC50) was 20 nM.

Turning to `N#Cc1cc(F)cc(-c2sc(C(=O)N3CNC(=O)C3)nc2-c2ccc(F)c(Cl)c2)c1` [Example 11], the 50% effective concentration (EC50) in assay [1] is 69 nM; in assay [2], 5 nM; in the assay on HIV-1LAI, 4 nM. In addition, the 50% inhibitory concentration (IC50) against reverse transcriptase stood at 13 nM.

As for `O=C1CN(C(=O)c2nc(-c3cccc(Cl)c3)c(-c3cccc(Cl)c3)s2)CN1` [Example 20, 1-{[4,5-Bis(3-chlorophenyl)-1,3-thiazole-2-yl]carbonyl}imidazolidin-4-one], the concentration giving a half-maximal response (EC50) in assay [1] was 149 nM; in assay [2] it was 1 nM; with HIV-1LAI, 7 nM. Further, the concentration for half-maximal inhibition (IC50) at reverse transcriptase (setting [3]) came out at 47 nM.
